Data published in US11299487B2, “Compounds and compositions as modulators of TLR signaling” (Neuropore Therapies, Inc., priority 2019, dated 2022).

What was measured:
human TLR2 [1] = target: T1, human TLR2 (Homo sapiens, UniProt O60603); test: HEK-Blue hTLR2 antagonism assay (SEAP reporter) with agonist Pam2CSK4 (TLR2/6 agonist); type: cell-based; settings: HEK-Blue hTLR2 cells, ~3×EC50 Pam2CSK4, 18 h, SEAP OD 655 nm, 8-point dilutions
T1 construct: host or cells: HEK-Blue hTLR2 (HEK-293)
Procedure: (§1) Synthetic diacylated lipoprotein (Pam2CSK4, TLR2/6 agonist) and synthetic triacylated lipoprotein (Pam3CSK4, TLR1/2 agonist) were obtained from InvivoGen and were dissolved in endotoxin-free water to a concentration 1 mg/mL, vortexed until complete solubilization, and stored in aliquots at −20° C. Prior to addition to cells, an aliquot of the dissolved ligand was vortexed shortly and then was diluted in medium to 25 ng/mL Pam2CSK4 or 1000 ng/mL Pam3CSK4.
(§2) Test compounds were solubilized fresh to 10-20 mM stocks in DMSO and sonicated for 5-10 minutes in a water bath sonicator. Serial dilutions were prepared in DMSO, and then diluted in medium. The final concentration of DMSO used in the assay was 1%.
(§3) HEK-Blue hTLR2 reporter cells (InvivoGen) are HEK-293 cells stably expressing both the human TLR2 gene and a secreted embryonic alkaline phosphatase (SEAP) reporter construct downstream of NFκB promotor sites. HEK-Blue hTLR2 reporters were cultured according to manufacturer's protocol using Dulbecco's Modified Eagle Medium (DMEM; Gibco) containing 1× GlutaMax (Gibco), 10% heat-inactivated Fetal Bovine Serum (Gibco), Pen-Strep (50 U/mL penicillin, 50 μg/mL streptomycin, Gibco), 100 μg/mL Normocin (InvivoGen), and the selective antibiotic, 1×HEK-Blue Selection (InvivoGen). Quanti-Blue reagent (InvivoGen) for detection and quantification of secreted alkaline phosphatase was dissolved in 100 mL of endotoxin-free water, warmed to 37° C. for 30 minutes and then filtered using a 0.2 μm membrane.
(§4) On day 1, 50 μL of each test compound dilution in duplicates or a vehicle control was added to each well of a 96-well plate followed by addition of 150 μL of HEK-Blue hTLR2 cell suspension (1×10^5 cells/well) and incubated at 37° C./5% CO2 for 2 h. Next, 50 μL of an approximate 3×EC50 concentration of each agonist (Pam2CSK4 or Pam3CSK4) was added to the wells containing test compounds or the vehicle control. The plates were then incubated at 37° C./5% CO2 for 18 h. For each assay run, non-treated HEK-Blue hTLR2 cells were treated with serial dilutions of agonists to determine EC50 values for the respective run.
(§5) On day 2, secreted alkaline phosphatase (SEAP) activity was detected in cell culture supernatants. In brief, 20 μL was collected from each well and transferred to a 96-well plate. Next, 200 μL of Quanti-Blue detection reagent was added to each well. Plates were incubated at room temperature for 15 min. and SEAP activity was assessed by spectrophotometer OD reading at 655 nm. […] IC50 values were calculated based on 8-point dilutions for each compound.

human TLR2 [2] = target: T1, human TLR2; test: HEK-Blue hTLR2 antagonism assay (SEAP reporter) with agonist Pam3CSK4 (TLR1/2 agonist); type: cell-based; settings: HEK-Blue hTLR2 cells, ~3×EC50 Pam3CSK4, 18 h, SEAP OD 655 nm, 8-point dilutions
Procedure: as §1, §2, §3, §4, §5

T1 sequence (O60603 21-784): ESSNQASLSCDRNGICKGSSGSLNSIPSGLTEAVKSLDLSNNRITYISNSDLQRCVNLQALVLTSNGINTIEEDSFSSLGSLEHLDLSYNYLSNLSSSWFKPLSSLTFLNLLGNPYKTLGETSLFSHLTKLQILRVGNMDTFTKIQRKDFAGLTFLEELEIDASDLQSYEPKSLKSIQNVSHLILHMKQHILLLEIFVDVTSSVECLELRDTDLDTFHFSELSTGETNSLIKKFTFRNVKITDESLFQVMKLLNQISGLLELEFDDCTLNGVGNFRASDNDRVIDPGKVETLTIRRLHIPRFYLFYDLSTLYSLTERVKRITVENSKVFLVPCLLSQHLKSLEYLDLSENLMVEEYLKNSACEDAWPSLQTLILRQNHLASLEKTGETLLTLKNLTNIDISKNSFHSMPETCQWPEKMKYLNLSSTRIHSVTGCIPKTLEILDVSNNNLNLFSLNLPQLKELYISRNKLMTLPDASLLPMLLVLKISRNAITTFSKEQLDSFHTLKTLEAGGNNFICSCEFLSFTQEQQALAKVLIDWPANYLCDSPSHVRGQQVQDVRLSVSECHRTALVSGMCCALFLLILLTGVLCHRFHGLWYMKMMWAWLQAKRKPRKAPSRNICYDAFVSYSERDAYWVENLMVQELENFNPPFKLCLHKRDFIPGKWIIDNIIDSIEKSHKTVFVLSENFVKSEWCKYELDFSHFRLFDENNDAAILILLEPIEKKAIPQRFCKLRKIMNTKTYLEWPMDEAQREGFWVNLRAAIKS

IC50 (human TLR2 [1]; Table A) [µM] | IC50 (human TLR2 [2]; Table A) [µM] | IC50 (human TLR2 [1]; Table B) [µM] | IC50 (human TLR2 [2]; Table B) [µM] | SMILES
 |  | 0.5 | 0.3 | O=Cc1cc(C#Cc2ccc(N3CCCCC3)cc2)cc(F)c1O [Compound B2, 3-fluoro-2-hydroxy-5-((4-(piperidin-1-yl)phenyl)ethynyl)benzaldehyde]
 |  | 1.9 | 1.1 | O=Cc1c(O)cc(C#Cc2ccc(N3CCCCC3)cc2)cc1F [Compound B5, 2-fluoro-6-hydroxy-4-((4-(piperidin-1-yl)phenyl)ethynyl)benzaldehyde]
 |  | 3.8 | 1.8 | O=Cc1c(O)cc(C#Cc2ccc(N3CCOCC3)cc2)cc1F [Compound B6, 2-fluoro-6-hydroxy-4-((4-morpholinophenyl)ethynyl)benzaldehyde]
 |  | 2.9 | 1.6 | COc1cc(C#Cc2ccc(N3CCOCC3)cc2)cc(C=O)c1O [Compound B8, 2-hydroxy-3-methoxy-5-((4-morpholinophenyl)ethynyl)benzaldehyde]
 |  | 8.1 | 6.8 | O=Cc1cc(NC(=O)c2ccccc2)cc(F)c1O [Compound B9, N-(3-fluoro-5-formyl-4-hydroxyphenyl)benzamide]
 |  | 11.6 | 7.2 | O=Cc1cc(NC(=O)Nc2ccccc2)cc(F)c1O [Compound B10, 1-(3-fluoro-5-formyl-4-hydroxyphenyl)-3-phenylurea]
 |  | 1.9 | 1.9 | O=Cc1cc(C(=O)Nc2ccc(C(F)(F)F)cc2)cc(F)c1O [Compound B13, 3-fluoro-5-formyl-4-hydroxy-N-(4-(trifluoromethyl)phenyl)benzamide]
 |  | 32.7 | 19.8 | O=Cc1cc(C(=O)Nc2cnc(N3CCCC3)nc2)cc(F)c1O [Compound B59, 3-fluoro-5-formyl-4-hydroxy-N-(2-(pyrrolidin-1-yl)pyrimidin-5-yl)benzamide]
 |  | 16.4 | 9.3 | O=Cc1cc(C(=O)Nc2ccc(N3CCCC3)nc2)cc(F)c1O [Compound B61, 3-fluoro-5-formyl-4-hydroxy-N-(6-(pyrrolidin-1-yl)pyridin-3-yl)benzamide]
 |  | 30.1 | 11.3 | Cn1cc(-c2ccc(NC(=O)c3cc(F)c(O)c(C=O)c3)cc2)cn1 [Compound B63, 3-fluoro-5-formyl-4-hydroxy-N-(4-(1-methyl-1H-pyrazol-4-yl)phenyl)benzamide]
 |  | 10.9 | 8 | O=Cc1cc(NC(=O)Nc2ccc(F)cc2)cc(F)c1O [Compound B64, 1-(3-fluoro-5-formyl-4-hydroxyphenyl)-3-(4-fluorophenyl)urea]
 |  | 1.8 | 1 | O=Cc1cc(C(=O)Nc2ccc(N3CCCCC3)cc2)cc(F)c1O [Compound B66, 3-fluoro-5-formyl-4-hydroxy-N-(4-(piperidin-1-yl)phenyl)benzamide]
 |  | 7.6 | 2.3 | O=Cc1cc(C(=O)Nc2ccc(N3CCN(C4CC4)CC3)cc2)cc(F)c1O [Compound B69, N-(4-(4-cyclopropylpiperazin-1-yl)phenyl)-3-fluoro-5-formyl-4-hydroxybenzamide]

Second part, the molecule before the results:

SMILES | IC50 (human TLR2 [1]; Table A) [µM] | IC50 (human TLR2 [2]; Table A) [µM] | IC50 (human TLR2 [1]; Table B) [µM] | IC50 (human TLR2 [2]; Table B) [µM]
Cc1nc(-c2ccc(N3CCCC3)cc2)sc1-c1cc(F)c(O)c(C=O)c1 [Compound A98, 3-fluoro-2-hydroxy-5-(4-methyl-2-(4-(pyrrolidin-1-yl)phenyl)thiazol-5-yl)benzaldehyde] | 1.4 | 1 |  | 
O=Cc1cc(-c2cnc(-c3ccccc3)s2)ncc1O [Compound A99, 5-hydroxy-2-(2-phenylthiazol-5-yl)isonicotinaldehyde] | 3.3 | 2.2 |  | 
CC1(C)CCN(c2ccc(-c3nsc(-c4cc(F)c(O)c(C=O)c4)n3)cc2)C1 [Compound A100, 5-(3-(4-(3,3-dimethylpyrrolidin-1-yl)phenyl)-1,2,4-thiadiazol-5-yl)-3-fluoro-2-hydroxybenzaldehyde] | 1.4 | 0.6 |  | 
O=Cc1cc(-c2cnc(-c3cccc(N4CCCC4)c3)s2)cc(F)c1O [Compound A101, 3-fluoro-2-hydroxy-5-(2-(3-(pyrrolidin-1-yl)phenyl)thiazol-5-yl)benzaldehyde] | 3.2 | 1 |  | 
O=Cc1cc(-c2cnc(-c3ccc(N4CCCC4)nc3)s2)cc(F)c1O [Compound A102, 3-fluoro-2-hydroxy-5-(2-(6-(pyrrolidin-1-yl)pyridin-3-yl)thiazol-5-yl)benzaldehyde] | 1.9 | 1 |  | 
Cc1nc(-c2cccc(N3CCCC3)c2)sc1-c1cc(F)c(O)c(C=O)c1 [Compound A103, 3-fluoro-2-hydroxy-5-(4-methyl-2-(3-(pyrrolidin-1-yl)phenyl)thiazol-5-yl)benzaldehyde] | 3.9 | 1.3 |  | 
Cc1nc(-c2ccc(N3CCCC3)nc2)sc1-c1cc(F)c(O)c(C=O)c1 [Compound A104, 3-fluoro-2-hydroxy-5-(4-methyl-2-(6-(pyrrolidin-1-yl)pyridin-3-yl)thiazol-5-yl)benzaldehyde] | 6.8 | 3.9 |  | 
CC1(C)CCN(c2ccc(-c3csc(-c4cc(F)c(O)c(C=O)c4)n3)cc2)C1 [Compound A105, 5-(4-(4-(3,3-dimethylpyrrolidin-1-yl)phenyl)thiazol-2-yl)-3-fluoro-2-hydroxybenzaldehyde] | 1.9 | 0.5 |  | 
O=Cc1cc(-c2cnc(-c3ccc(N4CCCC4)cc3)s2)ncc1O [Compound A112, 5-hydroxy-2-(2-(4-(pyrrolidin-1-yl)phenyl)thiazol-5-yl)isonicotinaldehyde] | 0.3 | 0.2 |  | 
O=Cc1cc(-c2cnc(-c3cnc(N4CCCC4)c(C(F)(F)F)c3)s2)cc(F)c1O [Compound A114, 3-fluoro-2-hydroxy-5-(2-(6-(pyrrolidin-1-yl)-5-(trifluoromethyl)pyridin-3-yl)thiazol-5-yl)benzaldehyde] | 0.7 | 0.4 |  | 
O=Cc1cc(-c2cnc(-c3ccc(N4CC5(CCC5)C4)cc3)s2)cc(F)c1O [Compound A116, 5-(2-(4-(2-azaspiro[3.3]heptan-2-yl)phenyl)thiazol-5-yl)-3-fluoro-2-hydroxybenzaldehyde] | 1.3 | 0.6 |  | 
O=Cc1cc(-c2csc(-c3ccc(N4CCCC4)nc3)n2)cc(F)c1O [Compound A123, 3-fluoro-2-hydroxy-5-(2-(6-(pyrrolidin-1-yl)pyridin-3-yl)thiazol-4-yl)benzaldehyde] | 1.7 | 1.5 |  | 
O=Cc1cc(-c2csc(-c3cccc(N4CCCC4)c3)n2)cc(F)c1O [Compound A124, 3-fluoro-2-hydroxy-5-(2-(3-(pyrrolidin-1-yl)phenyl)thiazol-4-yl)benzaldehyde] | 1.7 | 1 |  | 
O=Cc1cc(-c2nsc(-c3cccc(N4CCCC4)c3)n2)cc(F)c1O [Compound A125, 3-fluoro-2-hydroxy-5-(5-(3-(pyrrolidin-1-yl)phenyl)-1,2,4-thiadiazol-3-yl)benzaldehyde] | 3.3 | 2 |  | 
O=Cc1cc(-c2csc(-c3ccc(N4CCCCC4)nc3)n2)cc(F)c1O [Compound A126, 3-fluoro-2-hydroxy-5-(2-(6-(piperidin-1-yl)pyridin-3-yl)thiazol-4-yl)benzaldehyde] | 1.1 | 0.6 |  | 
O=Cc1cc(-c2cnc(-c3ccc(N4CCCCC4)nc3)s2)cc(F)c1O [Compound A127, 3-fluoro-2-hydroxy-5-(2-(6-(piperidin-1-yl)pyridin-3-yl)thiazol-5-yl)benzaldehyde] | 1.2 | 0.7 |  | 
